Values joined by “and” are separate entries in the source; they are usually repeats but may differ in a detail not shown here. Equal values may be shown once. Read-outs that look alike come from different tables or passages of the source.
Tests used:
Experiment in all cases: nanoBRET off-target validation
Assay type in all cases: cell-based
JNK2 = target: T1, JNK2 (Homo sapiens, UniProt P45984)
T1 construct: host or cells: HEK293T (ATCC CRL-3216)
Experimental: (§1) The assay was performed as described previously ([61]). In brief, full-length kinases as listed in table S6 were obtained as plasmids cloned in frame with terminal NanoLuc-fusion (gift from Promega; table S6). […] Serially diluted inhibitor and corresponding tracer as listed in table S6 at the Tracer KD concentration taken from TracerDB (tracerdb.org) ([62]) were pipetted into white 384-well plates (Greiner, 781207) using an ECHO acoustic dispenser (Labcyte). The corresponding protein-transfected cells were added and reseeded at a density of 2 × 10^5 cells/ml after trypsinization and resuspending in Opti-MEM without phenol red (Life Technologies). The system was allowed to equilibrate for 3 hours at 37°C/5% CO2 before bioluminescence resonance energy transfer (BRET) measurements. To measure BRET, NanoBRET NanoGlo Substrate + extracellular NanoLuc Inhibitor (Promega, N2540) was added as per the manufacturer’s protocol, and filtered luminescence was measured on a PHERAstar plate reader (BMG Labtech) equipped with a luminescence filter pair [450-nm BP filter (donor) and 610-nm LP filter (acceptor)]. […] (For step-by-step protocol, see www.eubopen.org/sites/www.eubopen.org/files/attachments/2021/NanoBRET-IC50_v1_0.pdf.)

STK17B = target: T2, STK17B (Homo sapiens, UniProt O94768)
T2 construct: host or cells: HEK293T (ATCC CRL-3216)
T2 sequence (O94768 1-372): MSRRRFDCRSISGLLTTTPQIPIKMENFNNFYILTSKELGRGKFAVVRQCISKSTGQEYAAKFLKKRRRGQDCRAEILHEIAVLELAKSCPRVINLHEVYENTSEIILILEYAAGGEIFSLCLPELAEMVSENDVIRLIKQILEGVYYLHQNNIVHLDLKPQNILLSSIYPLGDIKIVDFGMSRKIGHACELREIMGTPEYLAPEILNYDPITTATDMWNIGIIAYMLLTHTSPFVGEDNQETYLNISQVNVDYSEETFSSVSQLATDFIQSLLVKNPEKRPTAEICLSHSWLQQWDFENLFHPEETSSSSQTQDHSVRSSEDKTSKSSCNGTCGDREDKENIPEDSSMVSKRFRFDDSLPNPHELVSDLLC
Experimental: as §1

CLK1 = target: T3, CLK1 (Homo sapiens, UniProt P49759)
T3 construct: host or cells: HEK293T (ATCC CRL-3216)
Experimental: as §1

T1 sequence (P45984 whole entry): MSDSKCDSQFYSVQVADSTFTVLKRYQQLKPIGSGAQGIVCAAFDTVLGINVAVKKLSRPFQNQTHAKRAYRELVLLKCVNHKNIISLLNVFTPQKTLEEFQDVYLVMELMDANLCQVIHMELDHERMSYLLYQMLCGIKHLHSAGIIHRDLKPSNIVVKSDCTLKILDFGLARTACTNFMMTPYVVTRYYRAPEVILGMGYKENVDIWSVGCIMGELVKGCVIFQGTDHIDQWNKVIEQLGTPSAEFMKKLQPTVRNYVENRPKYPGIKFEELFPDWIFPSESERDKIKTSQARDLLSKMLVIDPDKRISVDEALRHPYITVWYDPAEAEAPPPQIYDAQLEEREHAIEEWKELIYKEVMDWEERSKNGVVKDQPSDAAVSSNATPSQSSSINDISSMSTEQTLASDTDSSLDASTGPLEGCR
T3 sequence (P49759 whole entry): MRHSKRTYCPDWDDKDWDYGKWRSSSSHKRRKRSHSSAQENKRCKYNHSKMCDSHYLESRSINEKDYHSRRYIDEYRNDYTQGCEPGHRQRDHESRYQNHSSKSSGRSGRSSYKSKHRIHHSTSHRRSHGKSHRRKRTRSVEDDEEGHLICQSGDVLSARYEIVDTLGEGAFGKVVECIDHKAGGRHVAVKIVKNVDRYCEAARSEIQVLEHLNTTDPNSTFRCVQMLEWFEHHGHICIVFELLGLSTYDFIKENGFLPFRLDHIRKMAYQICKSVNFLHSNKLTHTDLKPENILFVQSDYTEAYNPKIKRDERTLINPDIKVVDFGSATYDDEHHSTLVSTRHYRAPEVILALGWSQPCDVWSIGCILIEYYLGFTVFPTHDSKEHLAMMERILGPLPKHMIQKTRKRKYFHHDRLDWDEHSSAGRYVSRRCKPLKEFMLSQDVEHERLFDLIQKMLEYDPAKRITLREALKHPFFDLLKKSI

## CCSc1nc(NC)c2c(-c3cccc(NC(=O)Nc4cc(C(C)(C)C)nn4-c4ccc(C)cc4)c3)c[nH]c2n1 [Compound 32]
JNK2; JNK2, inhibitor 25000 nM, two replicates, read-out: nanoBRET response normalized to 0% (no tracer) and 100% (no inhibitor) control
  remaining activity at 25 µM: 9.64%
JNK2; in cellulo nanoBRET, 293T cells
  EC50: < 5 µM and 2.7 µM
STK17B
  EC50: ≥ 20 µM
STK17B; STK17B, inhibitor 8 nM, two replicates, listed as RN341, 0.008 µM
  nanoBRET response normalized to 0% (no tracer) and 100% (no inhibitor) control: 97.0874%
STK17B; STK17B, inhibitor 8 nM, two replicates, read-out: nanoBRET response normalized to 0% (no tracer) and 100% (no inhibitor) control
  NanoBRET tracer signal (% of no-inhibitor control) at 0.008 µM: 97.6%
STK17B; STK17B, inhibitor 16 nM, two replicates, listed as RN341, 0.016 µM
  nanoBRET response normalized to 0% (no tracer) and 100% (no inhibitor) control: 82.8095%
STK17B; STK17B, inhibitor 16 nM, two replicates, read-out: nanoBRET response normalized to 0% (no tracer) and 100% (no inhibitor) control
  NanoBRET tracer signal (% of no-inhibitor control) at 0.016 µM: 94.7%
STK17B; STK17B, inhibitor 50 nM, two replicates, listed as RN341, 0.05 µM
  nanoBRET response normalized to 0% (no tracer) and 100% (no inhibitor) control: 109.03%
STK17B; STK17B, inhibitor 50 nM, two replicates, read-out: nanoBRET response normalized to 0% (no tracer) and 100% (no inhibitor) control
  NanoBRET tracer signal (% of no-inhibitor control) at 0.05 µM: 112%
STK17B; STK17B, inhibitor 250 nM, two replicates, listed as RN341, […]
  nanoBRET response normalized to 0% (no tracer) and 100% (no inhibitor) control: 93.8885%
STK17B; STK17B, inhibitor 250 nM, two replicates, read-out: nanoBRET response normalized to 0% (no tracer) and 100% (no inhibitor) control
  NanoBRET tracer signal (% of no-inhibitor control) at […]: 111%
STK17B; STK17B, inhibitor 500 nM, two replicates, listed as RN341, 0.5 µM
  nanoBRET response normalized to 0% (no tracer) and 100% (no inhibitor) control: 103.232% and 77.6568%
STK17B; STK17B, inhibitor 2500 nM, two replicates, read-out: nanoBRET response normalized to 0% (no tracer) and 100% (no inhibitor) control
  NanoBRET tracer signal (% of no-inhibitor control) at […]: 122% and 101%
STK17B; STK17B, inhibitor 5000 nM, two replicates, listed as RN341, 5 µM
  nanoBRET response normalized to 0% (no tracer) and 100% (no inhibitor) control: 104.626% and 83.1368%
STK17B; STK17B, inhibitor 25000 nM, two replicates, listed as RN341, 25 µM
  nanoBRET response normalized to 0% (no tracer) and 100% (no inhibitor) control: 75.7774%
STK17B; STK17B, inhibitor 25000 nM, two replicates, read-out: nanoBRET response normalized to 0% (no tracer) and 100% (no inhibitor) control
  NanoBRET tracer signal (% of no-inhibitor control) at 25 µM: 80.3%
CLK1
  EC50: 6 µM
CLK1; CLK1, inhibitor 8 nM, two replicates, listed as RN341, 0.008 µM
  nanoBRET response normalized to 0% (no tracer) and 100% (no inhibitor) control: 96.3388%
CLK1; CLK1, inhibitor 8 nM, two replicates, read-out: nanoBRET response normalized to 0% (no tracer) and 100% (no inhibitor) control
  normalized NanoBRET tracer signal at 0.008 µM: 99.4%
CLK1; CLK1, inhibitor 16 nM, two replicates, listed as RN341, 0.016 µM
  nanoBRET response normalized to 0% (no tracer) and 100% (no inhibitor) control: 93.1575%
CLK1; CLK1, inhibitor 16 nM, two replicates, read-out: nanoBRET response normalized to 0% (no tracer) and 100% (no inhibitor) control
  normalized NanoBRET tracer signal at 0.016 µM: 93.9%
CLK1; CLK1, inhibitor 50 nM, two replicates, listed as RN341, 0.05 µM
  nanoBRET response normalized to 0% (no tracer) and 100% (no inhibitor) control: 98.6143%
CLK1; CLK1, inhibitor 50 nM, two replicates, read-out: nanoBRET response normalized to 0% (no tracer) and 100% (no inhibitor) control
  normalized NanoBRET tracer signal at 0.05 µM: 97.1%
CLK1; CLK1, inhibitor 250 nM, two replicates, listed as RN341, […]
  nanoBRET response normalized to 0% (no tracer) and 100% (no inhibitor) control: 91.8848%
CLK1; CLK1, inhibitor 250 nM, two replicates, read-out: nanoBRET response normalized to 0% (no tracer) and 100% (no inhibitor) control
  normalized NanoBRET tracer signal at […]: 93.8%
CLK1; CLK1, inhibitor 500 nM, two replicates, listed as RN341, 0.5 µM
  nanoBRET response normalized to 0% (no tracer) and 100% (no inhibitor) control: 89.5722%
CLK1; CLK1, inhibitor 500 nM, two replicates, read-out: nanoBRET response normalized to 0% (no tracer) and 100% (no inhibitor) control
  normalized NanoBRET tracer signal at 0.5 µM: 87.8%
CLK1; CLK1, inhibitor 2500 nM, two replicates, listed as RN341, […]
  nanoBRET response normalized to 0% (no tracer) and 100% (no inhibitor) control: 66.5911%
CLK1; CLK1, inhibitor 2500 nM, two replicates, read-out: nanoBRET response normalized to 0% (no tracer) and 100% (no inhibitor) control
  normalized NanoBRET tracer signal at […]: 70.4%
CLK1; CLK1, inhibitor 5000 nM, two replicates, listed as RN341, 5 µM
  nanoBRET response normalized to 0% (no tracer) and 100% (no inhibitor) control: 68.3349%
CLK1; CLK1, inhibitor 5000 nM, two replicates, read-out: nanoBRET response normalized to 0% (no tracer) and 100% (no inhibitor) control
  normalized NanoBRET tracer signal at 5 µM: 62%
CLK1; CLK1, inhibitor 25000 nM, two replicates, listed as RN341, 25 µM
  nanoBRET response normalized to 0% (no tracer) and 100% (no inhibitor) control: 18.5705%
CLK1; CLK1, inhibitor 25000 nM, two replicates, read-out: nanoBRET response normalized to 0% (no tracer) and 100% (no inhibitor) control
  normalized NanoBRET tracer signal at 25 µM: 17.2%
